{"source": "patent US7799530B2", "about": "“Genetic polymorphisms associated with cardiovascular disorders and drug response, methods of detection and uses thereof” (Celera Corporation, priority 2005, dated 2010)", "key": {"[1]": {"tested_on": "recurrent myocardial infarction (RMI) in CARE patients", "test": "CARE trial: recurrent MI in pravastatin- vs placebo-treated patients stratified by SNP genotype", "assay_type": "in vivo, human", "conditions": "for HR, on-trial MI, Unadjusted: placebo = ref 1.00; for HR, on-trial MI, Adjusted: placebo = ref 1.00, adjusted for age, smoking, hypertension, diabetes, BMI, LDL-C, HDL-C; for OR_dom, risk of RMI / OR_het, risk of RMI / OR_maj, risk of RMI / OR_min, risk of RMI / OR, risk of RMI: placebo- vs. pravastatin-treated patients; for Risk Reduction by Statin (Pravastatin vs. Placebo) OR: odds ratio of recurrent MI, pravastatin- vs placebo-treated, heterozygous carriers of hCV3054799 only", "text": "In order to identify genetic markers associated with acute coronary events (e.g. MI, stroke, unstable angina, congestive heart failure, etc.) or response to statin treatment for the prevention of coronary events, samples were genotyped in two clinical trials: the Cholesterol and Recurrent Events (CARE) study (a randomized multicentral double-blinded trial on secondary prevention of acute coronary events with pravastatin; Sacks et al., Am. J. Cardiol. 68: 1436-1446[1991]), and the West of Scotland Coronary Prevention Study (WOSCOPS) study (Shepherd et al., N Eng J Med 333 (20), pp. 1301-7, Nov. 16, 1995; Packard et al., N Eng J Med 343 (16), pp. 1148-55, Oct. 19, 2000).\nA well-documented myocardial infarction (MI) was one of the enrollment criteria for entry into the CARE study. Patients were enrolled in the CARE trial from 80 participating study centers. […] Patients were randomized to receive either 40 mg of pravastatin once daily or a matching placebo. The primary endpoint of the trial was death from coronary heart disease and the median duration of follow-up was 5.0 years (range, 4.0 to 6.2 years). All individuals included in the study had signed informed consent forms and the study protocol was approved by the respective Institutional Review Boards (IRBs).\nFor genotyping SNPs in CARE patient samples, DNA was extracted from blood samples using conventional DNA extraction methods such as the QIAamp kit from Qiagen. Genotypes were obtained by a method similar to that described by Lannone (M. A. Lannone et al., Cytometry 39(2):131-140 [Feb. 1, 2000]; also described in section “SNP DETECTION REAGENTS,” supra). Briefly, target DNA was amplified by multiplex PCR, the amplified product was submitted to a multiplex oligo ligation assay (OLA), the specific ligated products were hybridized to unique universal “ZIP code” oligomer sequences covalently attached to Luminex xMAP® Multi-Analyte COOH Microspheres, and these hybridization products/microspheres were detected in a rapid automated multiplex system using the Luminex 100 instrument. Alternatively, allele specific primers were designed for detecting each SNP and genotypes were obtained on an ABI PRISM® 7900HT Sequence Detection PCR system (Applied Biosystems) by allele-specific PCR, similar to the method described by Germer et al (Germer S., Holland M. J., Higuchi R. 2000, Genome Res. 10: 258-266). […]\nIn analyzing the CARE patients, statistical analysis was performed with SAS version 9. Cox proportional hazard models (Wald tests) were used in CARE to assess the association of genotype with both the risk of incident MI in the placebo arm and the effect of on MI pravastatin compared to placebo in subgroups defined by genotypes. In analyzing the WOSCOPS patients, a conditional logistic regression model was used in WOSCOPS given that the controls had been previously matched to the cases. The column entitled “On-trial MI” lists the number of patients who suffered an RMI during the clinical trial period.\nAn additional 175 markers were analyzed in samples from the CARE study (secondary MI prevention trial). […] Of the cases, 150 received placebo treatment and 114 received pravastatin; of the controls, 1290 received placebo and 1359 received pravastatin.\nThe genotypes for each SNP were tested for association with RMI. This genotypic test of association (i.e., minor homozygote genotype vs. major, and heterozygote vs. major) was performed separately for placebo-treated patients and for all patients unstratified by treatment group, using the Fisher's exact method. […] The reliability of the OR for each particular SNP is confirmed by its respective 95% confidence interval (CI) and P value, also shown. From Table 14 one can see the association of several SNPs with MI risk when they are present in a Homozygous Minor genotype (association based on an OR>1, the lower limit of the 95% CI>1 and a P value <0.05). […]"}, "[2]": {"tested_on": "animal models and myocyte cultures", "conditions": "compared to other hydrophobic statins; cited from earlier work"}, "[3]": {"conditions": "marker hCV2741051, heterozygous"}, "[4]": {"conditions": "marker hCV2741051, major homozygous"}, "[5]": {"conditions": "marker hCV2741051, minor homozygous"}, "[6]": {"conditions": "marker hCV25745415, heterozygous"}, "[7]": {"conditions": "marker hCV25745415, major homozygous"}, "[8]": {"conditions": "marker hCV25745415, minor homozygous"}}}
{"smiles": "CC[C@H](C)C(=O)O[C@H]1C[C@H](O)C=C2C=C[C@H](C)[C@H](CC[C@@H](O)C[C@@H](O)CC(=O)O)[C@H]21", "note": "[pravastatin]", "values": [{"measurement": "HR, on-trial MI, Unadjusted", "setting": "[1]; KIF6 hCV3054799 AA", "value": 0.86}, {"measurement": "HR, on-trial MI, Adjusted", "setting": "[1]; KIF6 hCV3054799 AA", "value": 0.80}, {"measurement": "HR, on-trial MI, Unadjusted", "setting": "[1]; KIF6 hCV3054799 GG + GA", "value": 0.63}, {"measurement": "HR, on-trial MI, Adjusted", "setting": "[1]; KIF6 hCV3054799 GG + GA", "value": 0.63}, {"measurement": "OR_dom, risk of RMI", "setting": "[1]; marker hCV465412, Dominant", "value": 0.50}, {"measurement": "OR_het, risk of RMI", "setting": "[1]; marker hCV465412, Heterozygous", "value": 0.47}, {"measurement": "OR_maj, risk of RMI", "setting": "[1]; marker hCV465412, Major Homozygous", "value": 0.80}, {"measurement": "OR_min, risk of RMI", "setting": "[1]; marker hCV465412, Minor Homozygous", "value": 1.35}, {"measurement": "OR, risk of RMI", "setting": "[1]; marker hCV881283, heterozygous", "value": 0.19}, {"measurement": "OR, risk of RMI", "setting": "[1]; marker hCV881283, major homozygous", "value": 0.76}, {"measurement": "OR, risk of RMI", "setting": "[1]; marker hCV881283, minor homozygous", "value": 0.00}, {"measurement": "OR, risk of RMI", "setting": "[1]; marker hCV1603656, heterozygous", "value": 0.33}, {"measurement": "OR, risk of RMI", "setting": "[1]; marker hCV1603656, major homozygous", "value": 0.87}, {"measurement": "OR, risk of RMI", "setting": "[1]; marker hCV1603656, minor homozygous", "value": 0.00}, {"measurement": "OR_dom, risk of RMI", "setting": "[1]; marker hCV2741051, Dominant", "value": 1.07}, {"measurement": "OR, risk of RMI", "setting": "[1]; [3]", "value": 1.02}, {"measurement": "OR_het, risk of RMI", "setting": "[1]; [3]", "value": 1.02}, {"measurement": "OR, risk of RMI", "setting": "[1]; [4]", "value": 0.55}, {"measurement": "OR_maj, risk of RMI", "setting": "[1]; [4]", "value": 0.55}, {"measurement": "OR, risk of RMI", "setting": "[1]; [5]", "value": 1.68}, {"measurement": "OR_min, risk of RMI", "setting": "[1]; [5]", "value": 1.68}, {"measurement": "OR_dom, risk of RMI", "setting": "[1]; marker hCV3054799, Dominant", "value": 0.65}, {"measurement": "OR_het, risk of RMI", "setting": "[1]; marker hCV3054799, Heterozygous", "value": 0.57}, {"measurement": "OR_maj, risk of RMI", "setting": "[1]; marker hCV3054799, Major Homozygous", "value": 0.98}, {"measurement": "OR_min, risk of RMI", "setting": "[1]; marker hCV3054799, Minor Homozygous", "value": 1.00}, {"measurement": "OR_dom, risk of RMI", "setting": "[1]; marker hCV7514870, Dominant", "value": 0.69}, {"measurement": "OR_het, risk of RMI", "setting": "[1]; marker hCV7514870, Heterozygous", "value": 0.83}, {"measurement": "OR_maj, risk of RMI", "setting": "[1]; marker hCV7514870, Major Homozygous", "value": 0.80}, {"measurement": "OR_min, risk of RMI", "setting": "[1]; marker hCV7514870, Minor Homozygous", "value": 0.37}, {"measurement": "OR_dom, risk of RMI", "setting": "[1]; marker hCV11450617, Dominant", "value": 0.62}, {"measurement": "OR_het, risk of RMI", "setting": "[1]; marker hCV11450617, Heterozygous", "value": 0.61}, {"measurement": "OR_maj, risk of RMI", "setting": "[1]; marker hCV11450617, Major Homozygous", "value": 0.78}, {"measurement": "OR_min, risk of RMI", "setting": "[1]; marker hCV11450617, Minor Homozygous", "value": 0.68}, {"measurement": "OR, risk of RMI", "setting": "[1]; marker hCV12107274, heterozygous", "value": 0.78}, {"measurement": "OR, risk of RMI", "setting": "[1]; marker hCV12107274, major homozygous", "value": 0.55}, {"measurement": "OR, risk of RMI", "setting": "[1]; marker hCV12107274, minor homozygous", "value": 1.75}, {"measurement": "OR, risk of RMI", "setting": "[1]; marker hCV15965459, heterozygous", "value": 0.35}, {"measurement": "OR, risk of RMI", "setting": "[1]; marker hCV15965459, major homozygous", "value": 0.82}, {"measurement": "OR, risk of RMI", "setting": "[1]; marker hCV15965459, minor homozygous", "value": 0.95}, {"measurement": "OR_dom, risk of RMI", "setting": "[1]; marker hCV15973230, Dominant", "value": 0.91}, {"measurement": "OR_het, risk of RMI", "setting": "[1]; marker hCV15973230, Heterozygous", "value": 0.91}, {"measurement": "OR_maj, risk of RMI", "setting": "[1]; marker hCV15973230, Major Homozygous", "value": 0.60}, {"measurement": "OR_min, risk of RMI", "setting": "[1]; marker hCV15973230, Minor Homozygous", "value": 0.71}, {"measurement": "OR, risk of RMI", "setting": "[1]; marker hCV15974589, heterozygous", "value": 0.67}, {"measurement": "OR, risk of RMI", "setting": "[1]; marker hCV15974589, major homozygous", "value": 0.43}, {"measurement": "OR, risk of RMI", "setting": "[1]; marker hCV15974589, minor homozygous", "value": 1.51}, {"measurement": "OR, risk of RMI", "setting": "[1]; marker hCV16054991, heterozygous", "value": 0.53}, {"measurement": "OR, risk of RMI", "setting": "[1]; marker hCV16054991, major homozygous", "value": 0.88}, {"measurement": "OR, risk of RMI", "setting": "[1]; marker hCV16054991, minor homozygous", "value": 0.43}, {"measurement": "OR, risk of RMI", "setting": "[1]; marker hCV25472673, heterozygous", "value": 0.61}, {"measurement": "OR, risk of RMI", "setting": "[1]; marker hCV25472673, major homozygous", "value": 1.13}, {"measurement": "OR, risk of RMI", "setting": "[1]; marker hCV25472673, minor homozygous", "value": 0.49}, {"measurement": "OR, risk of RMI", "setting": "[1]; marker hCV25623506, heterozygous", "value": 3.29}, {"measurement": "OR, risk of RMI", "setting": "[1]; marker hCV25623506, major homozygous", "value": 0.65}, {"measurement": "OR, risk of RMI", "setting": "[1]; marker hCV25623506, minor homozygous", "value": 0.00}, {"measurement": "OR_dom, risk of RMI", "setting": "[1]; marker hCV25745415, Dominant", "value": 0.92}, {"measurement": "OR, risk of RMI", "setting": "[1]; [6]", "value": 0.73}, {"measurement": "OR_het, risk of RMI", "setting": "[1]; [6]", "value": 0.73}, {"measurement": "OR, risk of RMI", "setting": "[1]; [7]", "value": 0.56}, {"measurement": "OR_maj, risk of RMI", "setting": "[1]; [7]", "value": 0.56}, {"measurement": "OR, risk of RMI", "setting": "[1]; [8]", "value": 5.87}, {"measurement": "OR_min, risk of RMI", "setting": "[1]; [8]", "value": 5.87}, {"measurement": "OR, risk of RMI", "setting": "[1]; marker hCV25749177, heterozygous", "value": 0.74}, {"measurement": "OR, risk of RMI", "setting": "[1]; marker hCV25749177, major homozygous", "value": 0.57}, {"measurement": "OR, risk of RMI", "setting": "[1]; marker hCV25749177, minor homozygous", "value": 2.81}, {"measurement": "OR_dom, risk of RMI", "setting": "[1]; marker hCV25963691, Dominant", "value": 0.64}, {"measurement": "OR_het, risk of RMI", "setting": "[1]; marker hCV25963691, Heterozygous", "value": 0.62}, {"measurement": "OR_maj, risk of RMI", "setting": "[1]; marker hCV25963691, Major Homozygous", "value": 0.71}, {"measurement": "OR_min, risk of RMI", "setting": "[1]; marker hCV25963691, Minor Homozygous", "value": 0.72}, {"measurement": "Risk Reduction by Statin (Pravastatin vs. Placebo) OR", "setting": "[1]", "value": "approximately 0.5"}, {"measurement": "Risk Reduction by Statin (Pravastatin vs. Placebo) OR", "setting": "[1]; listed as Pravastatin", "value": 0.54}, {"measurement": "myopathic potential", "setting": "[2]", "value": "low myopathic potential"}]}
